Consider 17 compounds from ChEMBL document CHEMBL4130357, “Developing potential agents against atherosclerosis: Design, synthesis and pharmacological evaluation of novel dual inhibitors of oxidative stress and Squalene Synthase activity” (Eur J Med Chem, 2017).

The source made the active and inactive calls. The calls are words filed in the database; no cut-off is given here.

A word on the IC50: it is the concentration that inhibits the measured activity by half. A word on the inhibition: it is the percentage by which the read-out fell short of the control.

A short description of test [1]: Antioxidant activity assessed as DPPH radical scavenging activity measured at 30 to 60 mins by UV-Visible spectrophotometric method. In kind it is functional. On the technique in general: DPPH is a stable violet radical that fades when it is reduced.
Test [2] addresses T1, Squalene synthase (Rattus norvegicus, UniProt Q02769).
T1 sequence (Q02769 whole entry): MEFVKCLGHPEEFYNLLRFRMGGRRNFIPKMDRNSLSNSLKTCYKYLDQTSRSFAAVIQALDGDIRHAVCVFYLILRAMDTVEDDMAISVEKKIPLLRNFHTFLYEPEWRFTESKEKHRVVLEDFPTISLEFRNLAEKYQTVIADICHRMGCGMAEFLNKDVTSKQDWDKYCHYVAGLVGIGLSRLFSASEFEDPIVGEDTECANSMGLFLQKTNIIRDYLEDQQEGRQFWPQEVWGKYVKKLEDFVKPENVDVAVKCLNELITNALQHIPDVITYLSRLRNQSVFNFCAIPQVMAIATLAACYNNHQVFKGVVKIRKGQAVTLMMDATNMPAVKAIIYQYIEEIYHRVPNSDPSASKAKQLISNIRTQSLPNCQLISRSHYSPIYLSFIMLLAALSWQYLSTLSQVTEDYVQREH
Briefly: Inhibition of SQS in rat microsomes using [3H]-FPP as substrate preincubated for 10 mins followed by substrate addition measured after 30 mins by scintillation counting.

For test [3], the system named is Liver. Briefly: Antioxidant activity in heat-inactivated Fischer-344 rat hepatic microsomes assessed as protection against Fe2+/ascorbate-induced lipid peroxidation after 45 mins by TBAR-based spectrophotometry. In kind it is functional, microsome. To be noted: Fischer-344, Liver, 0.75 h.
In test [4] the target is T2, Prostaglandin G/H synthase 1 (Ovis aries) (UniProt P05979).
T2 sequence (whole entry): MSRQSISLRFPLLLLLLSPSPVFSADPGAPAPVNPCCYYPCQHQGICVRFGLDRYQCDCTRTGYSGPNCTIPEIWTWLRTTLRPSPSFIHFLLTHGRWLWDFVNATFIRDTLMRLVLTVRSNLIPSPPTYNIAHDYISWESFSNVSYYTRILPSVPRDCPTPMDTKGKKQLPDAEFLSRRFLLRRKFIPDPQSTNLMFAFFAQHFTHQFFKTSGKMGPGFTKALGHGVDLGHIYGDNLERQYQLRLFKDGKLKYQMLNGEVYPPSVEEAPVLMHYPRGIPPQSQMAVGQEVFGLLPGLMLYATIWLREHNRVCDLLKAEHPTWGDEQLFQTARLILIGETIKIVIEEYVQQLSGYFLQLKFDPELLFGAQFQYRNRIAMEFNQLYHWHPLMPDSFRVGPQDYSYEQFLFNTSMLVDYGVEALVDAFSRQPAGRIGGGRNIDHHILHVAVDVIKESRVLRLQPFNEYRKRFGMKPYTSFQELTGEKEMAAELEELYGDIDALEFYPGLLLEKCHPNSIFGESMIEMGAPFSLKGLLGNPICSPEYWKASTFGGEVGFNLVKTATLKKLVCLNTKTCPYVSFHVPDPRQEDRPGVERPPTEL
Kind of test: Inhibition of ovine COX1 at 20 uM using arachidonic acid as substrate by ELISA. For orientation: In an ELISA, binding on a coated surface is turned into a signal by an enzyme label.

Test [5] relates to Mus musculus. Briefly: Anti-diabetic activity in HDF/STZ-induced obesity-diabetes type 2 SKH-2 mouse model assessed as reversal of glucose increase at 56 umol/kg, ip administered twice daily until 53 days measured every 5 to 10 days from day 27 to 53. In kind it is functional, organism-based.
Test [6] deals with Mus musculus. Kind of test: Antihypercholesterolemic activity in HDF/STZ-induced obesity-diabetes type 2 SKH-2 mouse model assessed as increase in plasma HDL levels at 56 umol/kg, ip administered twice daily measured on day 22 and day 53 relative to untreated control. In kind it is functional, organism-based.
Test [7] concerns the target T2, Prostaglandin G/H synthase 1 (Ovis aries). Kind of test: Inhibition of ovine COX1 at 50 uM using arachidonic acid as substrate by ELISA.
Test [8] deals with Mus musculus. Briefly: Anti-diabetic activity in HDF/STZ-induced obesity-diabetes type 2 SKH-2 mouse model assessed as reversal of body weight gain at 56 umol/kg, ip administered twice daily until 23 days measured once per week. In kind it is functional, organism-based.
Test [9] has as its system Mus musculus. Briefly: Antihyperlipidemic activity in HDF/STZ-induced obesity-diabetes type 2 SKH-2 mouse model assessed as increase in plasma HDL/LDL ratio at 56 umol/kg, ip administered twice daily measured on day 22 and day 53 relative to untreated control. In kind it is functional.
Test [10] concerns Mus musculus. Briefly: Antihyperlipidemic activity in HDF/STZ-induced obesity-diabetes type 2 SKH-2 mouse model assessed as decrease in plasma LDL levels at 56 umol/kg, ip administered twice daily measured on day 22 and day 53 relative to untreated control. On the set-up: scale not given: the % may be the effect or the level left. In kind it is functional.
Test [11] relates to Mus musculus. Briefly: Antihypercholesterolemic activity in HDF/STZ-induced obesity-diabetes type 2 SKH-2 mouse model assessed as decrease in plasma total cholestrol levels at 56 umol/kg, ip administered twice daily measured on day 22 and day 53 relative to untreated control. In kind it is functional. On the set-up: scale not given: the % may be the effect or the level left.

The subject of test [12] is Mus musculus. Briefly: Antihyperlipidemic activity in HDF/STZ-induced obesity-diabetes type 2 SKH-2 mouse model assessed as decrease in plasma triglyceride levels at 56 umol/kg, ip administered twice daily measured on day 22 and day 53 relative to untreated control. In kind it is functional. Also noted: scale not given: the % may be the effect or the level left.
The target of test [13] is T3, Prostaglandin G/H synthase 2 (Homo sapiens) (UniProt P35354).
T3 sequence (whole entry): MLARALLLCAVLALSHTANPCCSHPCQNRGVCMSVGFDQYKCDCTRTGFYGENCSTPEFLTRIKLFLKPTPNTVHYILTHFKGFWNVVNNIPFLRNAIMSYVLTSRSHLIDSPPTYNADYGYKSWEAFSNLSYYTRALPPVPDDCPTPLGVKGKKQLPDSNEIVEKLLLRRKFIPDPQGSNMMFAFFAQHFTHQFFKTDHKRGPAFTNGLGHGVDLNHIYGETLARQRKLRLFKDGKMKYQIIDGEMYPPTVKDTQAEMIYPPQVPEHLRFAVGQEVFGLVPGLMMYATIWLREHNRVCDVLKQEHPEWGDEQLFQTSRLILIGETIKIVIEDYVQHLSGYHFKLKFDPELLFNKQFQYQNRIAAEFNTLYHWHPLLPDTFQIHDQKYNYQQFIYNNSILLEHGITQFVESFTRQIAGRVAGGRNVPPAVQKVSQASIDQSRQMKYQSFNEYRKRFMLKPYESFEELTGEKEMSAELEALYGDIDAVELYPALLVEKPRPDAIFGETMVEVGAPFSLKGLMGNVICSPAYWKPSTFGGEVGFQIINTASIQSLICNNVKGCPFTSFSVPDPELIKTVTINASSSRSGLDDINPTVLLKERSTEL
Kind of test: Inhibition of recombinant human COX2 at 50 uM using arachidonic acid as substrate by ELISA.

In test [14] the test system is Mus musculus. Kind of test: Anti-diabetic activity in HDF/STZ-induced obesity-diabetes type 2 SKH-2 mouse model assessed as reversal of body weight gain at 56 umol/kg, ip administered twice daily until 53 days measured once per week from 28th to 53 day post STZ challenge. In kind it is functional, organism-based.

With `CN1CCOC(O)(c2ccc(/C=C/c3ccccc3)cc2)C1` (centres undefined), the IC50 is more than 400 µM in test [1], 7 µM in [2] and 110 µM in test [3].

For the compound `CN1CC(O)(c2ccc(-c3ccccc3)cc2)SC2CCCCC21` (centres undefined), the values for the 50% inhibitory concentration (IC50) in test [1], in test [2] and in test [3] were 271 µM, 16.5 µM and 83 µM, respectively. In [4], the inhibition came out at 89%.

For the compound `CN1CC(O)(c2ccc(-c3ccccc3)cc2)OC2CCCCC21` (centres undefined), the IC50 in [1] is more than 400 µM; in test [3], 450 µM.

In the case of `CN1CC(O)(c2ccc(-c3cc(C(C)(C)C)c(O)c(C(C)(C)C)c3)cc2)Sc2ccccc21` (centres undefined), the result in test [5], in [6] and in [8] was inactive. For the same compound, the inhibition result in [7] and in [13] was “inactive” each time. Moreover, the IC50 was 34 µM in test [1], more than 50 µM in test [2] and 6.5 µM in test [3]. For the same compound, the “fold change (FC)” value in [9] was 3. Further, the Activity in test [10] is listed as 65%; in test [11] it was 31%; in [12] it was 55%.

For the compound `CSc1ccccc1N(C)CC(=O)c1ccc(-c2ccccc2)cc1`, the IC50 in test [1] was more than 400 µM; in test [2], more than 50 µM; in test [3], more than 1000 µM.

As for `CN1CC(O)(c2ccc(-c3ccc(O)cc3)cc2)Sc2ccccc21` (centres undefined), the IC50 turned out to be 44 µM in test [1], 8.5 µM in [2] and 15 µM in test [3].

Regarding `CN1CCOC(O)(c2ccc(-c3ccccc3)cc2)C1` (centres undefined), the results for the inhibition in test [7] and in [13] were 38% and 100%, respectively. For the same compound, the IC50 in test [1] was more than 400 µM; in test [2], 33 µM; in test [3] it was 300 µM.

For the compound `CN1CC(O)(c2ccccc2)Oc2ccccc21` (centres undefined), the IC50 in test [1] is 152 µM; in [2], 50 µM; in [3], 7.6 µM.

Take `OC1(c2ccc(-c3ccccc3)cc2)CN2CCCCC2CO1` (centres undefined): the IC50 in test [1] is more than 400 µM; in [2], 35 µM; in test [3], 350 µM.

For the compound `CN1CC(O)(c2ccc(-c3ccccc3)cc2)Oc2ccc(-c3ccccc3)cc21` (centres undefined), the IC50 in test [1] is more than 400 µM; in test [2], more than 50 µM; in [3] it was 4.9 µM.

`Oc1ccc(/C=C/c2cc(O)cc(O)c2)cc1` [RESVERATROL]: the values for the IC50 in [1], in test [2] and in [3] were 96 µM, more than 50 µM and 15 µM, respectively.

With `CN1CC(O)(c2ccc(/C=C/c3ccccc3)cc2)OC2CCCCC21` (centres undefined), the inhibition result in test [7] and in test [13] was “inactive” each time. The figures for the IC50 in test [1] and in test [3] were more than 400 µM and 45 µM, respectively.

Take `CN1CC(O)(c2ccc(-c3cc(C(C)(C)C)c(O)c(C(C)(C)C)c3)cc2)OC2CCCCC21` (centres undefined): the outcome in test [6] and in test [12] was inactive. For the same compound, the IC50 is more than 400 µM in [1] and 5.9 µM in test [3]. In addition, the outcome in test [14] and in [8] was Active. The “fold change (FC)” value in [9] is listed as 7.5. Besides, the Activity is given as 95% in test [10] and 70% in test [11].

On to `CC(C)(Sc1cc(C(C)(C)C)c(O)c(C(C)(C)C)c1)Sc1cc(C(C)(C)C)c(O)c(C(C)(C)C)c1` [PROBUCOL], for which the IC50 was 234 µM in test [1] and more than 1000 µM in test [3].

`CN1CC(O)(c2ccc(-c3ccc(C(F)(F)F)cc3)cc2)Sc2ccccc21` (centres undefined): the results for the IC50 in [1], in test [2] and in [3] were 171 µM, 14 µM and 14 µM, respectively.

For the compound `OC1(c2ccc(/C=C/c3ccccc3)cc2)CN2CCCCC2CO1` (centres undefined), the inhibition entry in test [7] and in [13] was “inactive” each time. Further, the IC50 in [1] is more than 400 µM; in test [3] it was 42 µM.

Turning to `CN1CC(O)(c2ccccc2)Sc2ccccc21` (centres undefined), the IC50 in [1] is 183 µM; in [2], 28 µM; in test [3], 8.2 µM.
